Laboratory results published in patent publication US9403866B2, “Compositions and methods for increasing telomerase activity” (Telomerase Activation Sciences, Inc., priority 2009, dated 2016).
Read-outs that look alike come from different tables or passages of the source.

How the values were obtained:
[1] = parameters: species or system male Beagle dogs; conditions: male, Beagle, dog, in vivo, po, 10 mg/kg
Description: The plasma level of a compound following a single intravenous and oral administration in male Beagle dogs was determined. Plasma samples were collected and used to determine the plasma concentration of the compound and metabolites. In addition tissue samples, including whisker samples and PBMC cells were collected for telomerase activity analysis.
(§1) Male Beagle dogs were divided into treatment groups according to Table 5. The dogs were provided ad libitum SLAC-MO1 #W080701 (Shanghai Laboratories Animal Center, Shanghai, China) throughout the in-life portion of the study with the exception of the overnight fasting period prior to oral dosing. Water was available ad libitum.
The compounds were dissolved in 2% EtOH/98% water […] to yield a final concentration of 2.5 mg/ml and 1 mg/ml for both intravenous and oral administration, respectively. The concentration of each compound was confirmed by HPLC analysis.
Doses were administered intravenously via the left femoral vein and then by oral dosing one week later. Body weights were taken on the day of dose administration. Dose volume was determined based on individual body weight taken on day of dosing.
(§2) Blood samples (approximately 250 μL) were collected via right femoral vein into tubes containing K2-EDTA anticoagulant and 1 mg/ml NaF at appropriate time points. Blood was stored on ice and then plasma separated via centrifugation (8000 rpm×6 minutes). The plasma was stored at […] until LC-MS/MS analysis.

[2] = Plasma levels and bioavailability in mice; format: in vivo, male C57BL/6 mice; conditions: male, C57BL/6, mouse, read-out: Bioavailability % F
Description: The plasma levels of a compound following a single intravenous, oral, intra-peritoneal, or sub-cutaneous administration in male C57BL/6 mice was determined. Plasma samples were collected and used to determine the plasma concentration of the compound and metabolites. In addition tissue samples, including whisker samples, and peripheral blood mononuclear cells (PBMC) cells were collected for telomerase activity analysis.
as §1, with “[…] mice” for “Male Beagle dogs”, “groups.” for “groups according to Table 5.”, “mice” for “dogs”, “#W080208” for “#W080701”
(§3) Body weights were taken on the day of dose administration. Dose volume was determined based on individual body weight taken on day of dosing.
as §2, with “300” for “250”, “cardiac puncture or via retro-orbital puncture after anesthesia” for “right femoral vein”, “the various” for “appropriate”, “points after dosing.” for “points.”

[3] = Plasma levels and bioavailability in rats; conditions: male, Sprague Dawley, rat, in vivo, po, 10 mg/kg
Description: The plasma levels of a compound following a single intravenous and oral administration in carotid artery-cannulated male Sprague Dawley rats was determined. Plasma samples were collected and used to determine the plasma concentration of the compound and metabolites. In addition tissue samples, including whisker samples and PBMC cells were collected for telomerase activity analysis.
as §1, with “Carotid artery-cannulated male Sprague Dawley rats” for “Male Beagle dogs”, “6.” for “5.”, “rats” for “dogs”, “# YY080208” for “#W080701”
The compounds were dissolved in 2% EtOH/98% water to yield a final concentration of 2.5 mg/ml and 1 mg/ml for both intravenous and oral administration, respectively. The concentration of each compound was confirmed by HPLC analysis.
as §3
Blood samples (approximately 250 μL) were collected via cannulae into tubes containing K2-EDTA anticoagulant and 1 mg/ml NaF at the various time points. Blood was stored on ice and then plasma separated via centrifugation (8000 rpm×6 minutes). The plasma was stored at […] until LC-MS/MS analysis.
Percentage of bioavailability was calculated.

telomerase [4] = target: T1, telomerase (Homo sapiens, UniProt O14746); assay: Keratinocyte cell/TRAP assay (HEKneo-P cells); format: cell-based; parameters: host or cells: HEKneo-P (pooled neonatal human epidermal keratinocytes); conditions: for EC50: telomerase activation; for Activity in in vitro HEK assay: 24 hr, 0.01 to 10 μM, vs vehicle control at peak of full dose curve
Source text: Harley et al., U.S. Pat. […] Harley et al., U.S. Pat. […] Non-treatment control (NT) was also included. […]

telomerase [5] = target: T1, telomerase; assay: In vitro model of fibrosis: TGFβ and bleomycin treated SAECs, gel TRAP assay; format: cell-based; conditions: bleomycin 10 ug/ml, TGFβ 10 ng/ml
Description: In addition a portion of the cells were treated with bleomycin (10 ug/ml) and TGFβ (10 ng/ml). Forty-eight hours after the second treatment, cells were washed and lysed with M-Per lysis buffer. A gel TRAP assay was run to evaluate the telomerase activity in the cells.

Human brain pericytes = assay: Tube formation of human brain pericytes on Matrigel; format: cell-based; conditions: 0.5 μM in water, 24 hr then 6 hr on Matrigel, p<0.15
Description: Human brain pericytes (donor) at PD 10 were cultured for a total of 30 hr in 0.5 μM compound 7 dissolved in water. Telomerase activity and tube formation were analyzed.
Brain pericytes were first cultured for 24 hr in a T-75 flask in 0.5 μM compound 7, and then split onto a 24 well plate coated with Matrigel in order to promote tube formation (done in triplicate). 0.5 μM compound 7 was again included in the medium. After 6 hr the samples were fixed and branch points were counted using a microscope, 5 fields/well, with 3 wells/condition. Compound 7 treated pericytes had 1.9 times more branch points than the control (p<0.15).

telomerase [6] = target: T1, telomerase; parameters: host or cells: peripheral blood mononuclear cells; conditions: reported by Franzese et al.; cited from earlier work

T1 sequence (O14746 whole entry): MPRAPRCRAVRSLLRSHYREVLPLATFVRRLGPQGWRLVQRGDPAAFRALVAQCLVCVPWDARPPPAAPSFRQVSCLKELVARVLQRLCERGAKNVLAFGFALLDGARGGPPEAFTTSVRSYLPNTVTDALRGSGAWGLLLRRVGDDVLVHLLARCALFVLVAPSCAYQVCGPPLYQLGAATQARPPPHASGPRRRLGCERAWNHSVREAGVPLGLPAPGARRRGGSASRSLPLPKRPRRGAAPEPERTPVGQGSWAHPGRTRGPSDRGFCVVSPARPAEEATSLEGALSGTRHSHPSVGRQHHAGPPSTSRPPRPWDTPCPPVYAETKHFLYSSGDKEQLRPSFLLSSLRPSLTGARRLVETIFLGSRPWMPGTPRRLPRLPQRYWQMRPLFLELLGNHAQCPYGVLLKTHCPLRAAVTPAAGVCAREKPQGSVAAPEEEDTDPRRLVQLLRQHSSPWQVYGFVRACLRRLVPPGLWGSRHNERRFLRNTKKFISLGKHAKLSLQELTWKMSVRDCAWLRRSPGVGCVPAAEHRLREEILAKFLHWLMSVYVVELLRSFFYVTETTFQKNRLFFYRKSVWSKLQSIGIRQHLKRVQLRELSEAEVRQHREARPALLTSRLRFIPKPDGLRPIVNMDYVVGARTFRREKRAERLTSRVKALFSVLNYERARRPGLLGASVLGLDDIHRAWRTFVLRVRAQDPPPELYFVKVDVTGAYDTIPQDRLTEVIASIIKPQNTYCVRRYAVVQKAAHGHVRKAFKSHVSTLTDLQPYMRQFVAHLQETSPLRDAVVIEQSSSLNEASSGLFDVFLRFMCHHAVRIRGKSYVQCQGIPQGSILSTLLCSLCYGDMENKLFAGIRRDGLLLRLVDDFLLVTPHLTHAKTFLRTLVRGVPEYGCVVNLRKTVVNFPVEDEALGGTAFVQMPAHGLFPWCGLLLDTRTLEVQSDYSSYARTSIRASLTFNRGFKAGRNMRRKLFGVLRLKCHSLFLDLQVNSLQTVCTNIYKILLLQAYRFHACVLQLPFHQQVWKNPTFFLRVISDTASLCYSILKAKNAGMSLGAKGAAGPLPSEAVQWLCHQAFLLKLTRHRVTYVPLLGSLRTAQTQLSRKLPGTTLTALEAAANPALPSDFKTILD

| Molecule | Bioavailability % F [3] [%] | EC50 (telomerase [4]) [nM] | Max fold increase of activity (telomerase [4]) [fold] | Activity in in vitro HEK assay (telomerase [4]) | further results |
| --- | --- | --- | --- | --- | --- |
| CCC(C)C(N)C(=O)OC1CCC23CC24CCC2(C)C(C5(C)CCC(C(C)(C)O)O5)C(O)CC2(C)C4CC(O)C3C1(C)C (centres unmarked) [Compound 14] | 93 | 9 to 21 | – | – | Bioavailability % F [1]: 55%; bioavailability ([2]; PO, 10 mg/kg, 5% PEG400/5% solutol HS-15/90% water): 42% |
| bleomycin | – | – | – | – | effect on SAEC telomerase activity (telomerase [5]): suppressed SAEC telomerase activity |
| CC(C)[C@H](N)C(=O)OC1CC2(C)C3CC(O)C4C(C)(C)C(O)CCC45CC35CCC2(C)C1C1(C)CCC(C(C)(C)O)O1 (stereo partly drawn) [Compound 36, 2-(L)-Amino-3-methyl-butyric acid 3β,6α-dihydroxy-16β-hydroxy-17-[5-(1-hydroxy-1-methyl-ethyl)-2-methyl-tetrahydro-furan-2-yl]-4,4,13,14-tetramethyl-tetradecahydro-cyclopropa[9,10]cyclopenta[a]phenanthren-16β-yl ester] | – | – | 3.0 | + (telomerase activation is 2 fold or more in comparison with vehicle control at the peak of the full dose curve.) | concentration at Max fold increase of activity (telomerase [4]): 0.01 to 0.12 µM |
| CC(C)C(N)C(=O)OC1CC2C3(C)CC(O)C(C4(C)CCC(C(C)(C)O)O4)C3(C)CCC23CC32CCC(OC(=O)C(N)C(C)C)C(C)(C)C12 (stereo not drawn) [Compound 7, 2-(L)-Amino-3-methyl-butyric acid 6α-(2-amino-3-methyl-butyryloxy)-16β-dihydroxy-17-[5-(1-hydroxy-1-methyl-ethyl)-2-methyl-tetrahydro-furan-2-yl]-4,4,13,14-tetramethyl-tetradecahydro-cyclopropa[9,10]cyclopenta[a]phenanthren-3β-yl ester] | 44 | 41 to 50 | – | – | branch points relative to the control (Human brain pericytes): 1.9 times; bioavailability ([2]; PO, 10 mg/kg, 2% EtOH/98% water): 25%; bioavailability ([2]; SC, 10 mg/kg, 2% EtOH/98% water): 61% |
| CCC(C)[C@H](N)C(=O)OC1CC2C3(C)CC(O)C(C4(C)CCC(C(C)(C)O)O4)C3(C)CCC23CC32CCC(OC(=O)[C@@H](N)C(C)CC)C(C)(C)C12 (some centres unmarked) [Compound 32] | – | – | 3 | + (telomerase activation is 2 fold or more in comparison with vehicle control at the peak of the full dose curve.) | concentration at Max fold increase of activity (telomerase [4]): 0.37 to 1.1 µM |
| CC(C)[C@H](N)C(=O)O[C@H]1CC2C3(CC[C@]4(C)[C@@H]([C@@]5(C)CC[C@@H](C(C)(C)O)O5)[C@@H](O)C[C@@]24C)C[C@@]32CCC(=O)C(C)(C)[C@H]12.Cl (stereo partly drawn) [Compound 30, 2-(L)-Amino-3-methyl butyric acid 16β-hydroxy-17-[5-(1-hydroxy-1-methyl-ethyl)-2-methyl-tetrahydro-furan-2-yl]-4,4,13,14-tetramethyl-3-oxo-tetradecahydro-cyclopropa[9,10]cyclopenta[a]phenanthren-6α-yl ester] | – | – | 3.5 | + (telomerase activation is 2 fold or more in comparison with vehicle control at the peak of the full dose curve.) | – |
| CC(C)(C)NC(=O)[C@@H]1C[C@@H]2CCCC[C@@H]2CN1C[C@@H](O)[C@H](Cc1ccccc1)NC(=O)[C@H](CC(N)=O)NC(=O)c1ccc2ccccc2n1 [Saquinavir] | – | – | – | – | telomerase activity in peripheral blood mononuclear cells (telomerase [6]): increased telomerase activity |
| CC(C)C(N)C(=O)OC1CC2C3(C)CC(O)C(C4(C)CCC(C(C)(C)O)O4)C3(C)CCC23CC32CCC(O)C(C)(C)C12 (centres unmarked) [Compound 12] | 27 | 28 to 32 | – | – | bioavailability ([2]; IP, 5 mg/kg, 2% EtOH/98% water): 42%; bioavailability ([2]; PO, 5 mg/kg, 2% EtOH/98% water): 8% |
